Data on three substances can be found in US11116851B2, “Anti-cancer and anti-inflammatory therapeutics and methods thereof” (University of Massachusetts, priority 2015, dated 2021).

Data set [1] deals with PC3 cells. Nature of the data set: PC3 cell proliferation with Tet-inducible IBS or DKK3 constructs. Type of data set: cell-based. The following applies: limited antibiotic induction of Tet-inducible construct. The source says:
The relationship between IBS and the Wnt/β-catenin signaling pathway was defined by cell proliferation, promoter-driven reporter assays, and cell migration analysis. Limited antibiotic induction of Tet-inducible IBS or DKK3 constructs was used to avoid the untoward effects of over-expression. […] (Veeck et al. 2012 Biochim Biophys Acta 1825, 18-28; Hsieh et al. 2004 Oncogene 23, 9183-9189; Abarzua et al 2005 Cancer Res 65, 9617-9622; Edamura et al. 2007 Cancer Gene Ther 14, 765-772.)

In data set [2] the test system is Elf3. Nature of the data set: Elf3-luciferase reporter assay. Type of data set: cell-based. The settings on record: suppressed by Wnt-1 stimulation. From the text: (§1) FIG. 23. TAT-IBS antagonizes primary and secondary β-catenin and NF-κB-dependent gene expression. A) TAT-IBS blocks an NF-κB (p65)-responsive promoter driving luciferase reporter in HEK293 cells that was stimulated by Wnt-1 transfection (shaded bars). […] C) (Data previously disclosed in UMMC 12-40PR2). TAT-IBS restores E-Cadherin (CDH1)-promoter activity in Wnt-1 stimulated cells (middle chart). TopFlash and E2F-luciferase reporters are dependent on β-TrCP substrates, β-catenin and E2F, respectively (top and bottom charts). TAT-IBS blocks transcriptional activation by Wnt-1 stimulation of both reporters. DKK3b fused to an N-terminal cell penetrating peptide, a protein construct we refer to as TAT-IBS (a.k.a. cpIBS), regulates the activity of promoter elements that depend upon the nuclear translocation of β-TrCP target substrates (FIG. 23) as determined by promoter-luciferase reporter assays. Wnt-1 stimulates transcription regulated by NF-κB (FIG. 23A), β-catenin, and E2F (FIG. 23 C) transcription factor proteins. TAT-IBS treatment blocks this Wnt-1-induced stimulation. In contrast, Wnt-1 down-regulates transcription from promoter elements of two biomarkers of epithelial cellular differentiation, E-cadherin (FIG. 23C) and Elf3 (FIG. 23B). TAT-IBS treatment blocks Wnt-1-induced repression of these two epithelial gene transcripts.

The conditions of data set [3]: in vivo. The source says: (§2) Delivery of this intracellular tumor suppressor to the cytoplasm of the cancer cell is essential to achieve the cancer cell growth arrest and apoptosis. First attempts were made by fusing a variant of the cell penetrating peptide-TAT.
In data set [4] the test system is human ovarian, pancreatic, and colon cancers. The data set can be described thus: Tumor growth in tumor bearing PDX-mice. Type of data set: in vivo, mouse.
Source text: as §2

Data set [5] concerns Cleaved Caspase 3. Nature of the data set: Cleaved Caspase 3 in PC3 cells. Type of data set: cell-based. How it is done:
(§3) Over-expression of DKK3 in cancer cells initiates c-Jun Kinase (JNK) mediated apoptosis. (Abarzua et al. 2005 Cancer Res 65, 9617-9622; Kawasaki et al. 2009 Cancer Gene Ther 16, 65-72.) IBS and the JNK inhibitor, TAT-JBD were introduced into PC3 cells as TAT-fusion protein and peptide, respectively, and cell proliferation was measured after 3 days. […] Pro-apoptotic levels of cleaved Caspase 3 increased in TAT-IBS treated cells and this increase was blocked by inhibition of JNK activity (FIG. 8d). […] (Veeck et al. 2012 Biochim Biophys Acta 1825, 18-28; Abarzua et al. 2005 Cancer Res 65, 9617-9622.)

Data set [6] deals with β-catenin. Nature of the data set: Tcf-luciferase promoter reporter assay. The settings on record: Wnt1 co-transfected cells, treated 24 h. Type of data set: cell-based. How it is done: Primary and downstream promoter-luciferase reporter assays were used to explore the interaction between IBS and β-catenin-driven gene expression. Cells were co-transfected with Wntl and promoter-driven luciferase constructs and treated with TAT-IBS for 24 h. […] The ability of IBS to modulate two downstream β-catenin modulated pathways that reduce cell adhesion (ECad) and promote cell cycle progression (E2F) was also examined. […] Motile MDA-MB-231 cells were used to examine the effect of IBS on β-catenin dependent cell migration. IBS slowed malignant cell migration by >60% (FIG. 9d).

Data set [7] deals with HEK293 cells. The data set can be described thus: Basal and Wnt stimulated proliferation of HEK293 cells. In kind it is cell-based. The following applies: HEK293, highest concentration tested. The source says:
The impact of IBS on basal and Wnt stimulated cell proliferation was then examined in immortalized HEK293 cells (FIG. 9a). […] The more robust silencing by TAT-IBS is likely due to the universal delivery of this regulator to the cell monolayer.

Data set [8] has as its system NF-κB (p65). The data set can be described thus: NF-κB (p65)-responsive promoter luciferase reporter in HEK293 cells. The settings on record: HEK293 cells stimulated by Wnt-1 transfection. Type of data set: cell-based.
Source text: as §1

In data set [9] the test system is PC3 cells. Nature of the data set: PC3 cell proliferation after TAT-fusion protein/peptide. In kind it is cell-based. Here is the method: as §3
In data set [10] the target is native, unphosphorylated β-catenin (UniProt P35222). The data set can be described thus: cell-based or functional assay.

Some results are limits rather than exact numbers.

UniProt P35222, sequence (P35222 2-781 limits assumed): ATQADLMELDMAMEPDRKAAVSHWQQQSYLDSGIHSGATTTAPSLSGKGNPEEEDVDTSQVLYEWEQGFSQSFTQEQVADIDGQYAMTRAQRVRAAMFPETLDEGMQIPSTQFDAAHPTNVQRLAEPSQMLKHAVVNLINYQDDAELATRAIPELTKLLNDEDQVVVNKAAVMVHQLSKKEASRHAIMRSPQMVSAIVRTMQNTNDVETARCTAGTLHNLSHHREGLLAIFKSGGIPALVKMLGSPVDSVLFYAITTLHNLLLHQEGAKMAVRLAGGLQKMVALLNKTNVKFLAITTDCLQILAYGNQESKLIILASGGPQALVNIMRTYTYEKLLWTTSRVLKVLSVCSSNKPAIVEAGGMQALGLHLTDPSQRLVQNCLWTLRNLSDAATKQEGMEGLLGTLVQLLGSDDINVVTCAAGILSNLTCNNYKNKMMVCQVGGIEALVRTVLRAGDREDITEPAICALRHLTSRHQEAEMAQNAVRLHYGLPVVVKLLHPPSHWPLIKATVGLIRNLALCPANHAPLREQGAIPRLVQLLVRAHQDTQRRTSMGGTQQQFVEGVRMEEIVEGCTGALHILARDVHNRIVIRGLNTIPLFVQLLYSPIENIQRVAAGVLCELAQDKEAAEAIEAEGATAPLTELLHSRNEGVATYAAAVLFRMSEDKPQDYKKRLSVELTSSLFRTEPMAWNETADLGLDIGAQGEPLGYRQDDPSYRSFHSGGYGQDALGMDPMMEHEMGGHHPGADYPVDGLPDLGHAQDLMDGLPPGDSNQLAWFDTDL

“DKK3: secreted glycoprotein product of the DKK3 locus”: in [1], the PC3 cell proliferation entry is given as “did not alter the rate of PC3 cell proliferation”.
Take “TAT-IBS: DKK3b fused to an N-terminal cell penetrating peptide; bacterially expressed, unfolded fusion protein”: the “transcriptional activity of Elf3-luciferase” value in data set [2] was “restores transcriptional activity”. The “effects on biology in the mouse” value in data set [3] was “no effects on any biology in the mouse”. Besides, in data set [4] (pancreatic, and colon cancers in PDX-mice), the tumor necrosis result is “led to tumor necrosis”. The “growth of human cancers in PDX-mice” value in data set [4] (pancreatic, and colon cancers, bacterially expressed, unfolded protein) is “arrested growth”. Also, the “pro-apoptotic levels of cleaved Caspase 3” value in data set [5] is reported as “increased”. In data set [6], the “Wnt stimulated Tcf-luciferase expression” value is given as “completely arrested”. For the same substance, in [7], the Wnt-stimulated cell proliferation result is recorded as “completely eliminated” and the basal cell proliferation result is listed as “without altering basal cell proliferation”. Besides, in [8], the “NF-κB (p65)-responsive promoter luciferase reporter” value is “blocks”. Further, in data set [9] (PC3 cells, after 3 days), the “loss of the initial cell population” value is listed as above 75%. Also, the PC3 cell proliferation result in data set [9] (TAT-fusion protein, measured after 3 days) is reported as “arrested proliferation”.
In [10], “TAT-IBS (DKK3b fused to an N-terminal cell penetrating peptide) (from UniProt Q9UBP4 72-350)” registered a nuclear β-catenin level in LiCl-stimulated SOAS-2 and HeLa cells (cell fractionation) (fraction of untreated controls) of 0.33; a total cell content and distribution of β-catenin (nuclear, cytosolic and microfilament fractions) of 3 fold.
